The results in this text go back to patent US20220048915A1 (SHANGHAI PHARMACEUTICALS HOLDING CO., LTD., priority 2018, published 2022).

One data set has as its target p38α (Homo sapiens, UniProt Q16539). The data set can be described thus: In vitro inhibition of p38 kinase (LANCE Ultra TR-FRET). The settings on record: read-out: Kinase in vitro IC50(nM) p38α. The format is biochemical. Background: Time-resolved FRET reads energy transfer from a long-lived donor to a nearby acceptor.
A further data set concerns the target p38β (Homo sapiens, UniProt Q15759). Described as above. The format is biochemical. The note with it: read-out: Kinase in vitro IC50(nM) p38β.
The next data set addresses T1, p38γ (Homo sapiens, UniProt P53778).
T1 sequence (P53778 1-367): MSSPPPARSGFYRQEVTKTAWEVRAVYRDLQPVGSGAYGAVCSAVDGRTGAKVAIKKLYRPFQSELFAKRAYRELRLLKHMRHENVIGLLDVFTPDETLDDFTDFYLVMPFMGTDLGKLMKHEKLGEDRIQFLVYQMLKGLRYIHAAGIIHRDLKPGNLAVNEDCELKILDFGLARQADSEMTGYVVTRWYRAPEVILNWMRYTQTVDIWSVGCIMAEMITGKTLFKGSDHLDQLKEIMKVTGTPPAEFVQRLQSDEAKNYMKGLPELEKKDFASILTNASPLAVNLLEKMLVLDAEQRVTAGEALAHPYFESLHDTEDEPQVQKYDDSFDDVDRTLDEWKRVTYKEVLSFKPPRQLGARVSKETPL
Described as above. The format is biochemical. The note with it: read-out: Kinase in vitro IC50(nM) p38γ. On the procedure: 10 mM of the storage solution of the test compound was taken and placed in a 96-well compound plate, and using DMSO for the compound at an initial concentration of 100×, which was then used as the first concentration and then carried out a 3-fold gradient dilution with DMSO for a total of 10 concentrations. After that, 1 μL of gradient dilutions were added to 19 μL of 1× reaction buffer to prepare 5× compound for later use. […] To the compound-free control well was added 2 μL of the following liquid: 19 μL of 1× reaction buffer with addition of 1 μL of DMSO. To the Min control well was added 2 μL of 250 mM EDTA.
1× of LANCE® Detection value Buffer was used to prepare a 2×Antibody for use, and the amount was 5 μL per well, at the same time 10 mM EDTA was prepared for later use. After the enzyme reaction was carried out for 30 minutes, 5 μL 10 mM EDTA was added to the 384-well plate and the reaction was carried out at room temperature for 5 minutes. Afterwards, 5 μL LANCE® Ultra Europium-anti-phospho-eIF4E-binding protein 1 (Thr37/46) was added to the 384-well plate and the reaction was carried out at room temperature for one hour.

Another data set concerns BV-2 cells. Briefly: Inhibition of inflammation in LPS-stimulated BV-2 cells (ELISA of inflammatory factors). Format: cell-based. The settings on record: Mus musculus, 100 ng/mL LPS 4 hours; for Emax: read-out: BV-2 Max Inh. (%); for IC50: read-out: BV-2 Rf IC50. As to the method:
Normal cultured 8th passage BV-2 cells were taken, and inoculated separately in 96-well plates at a certain cell density. The cell culture plates were cultured at 37° C. and 5% CO2 for 24 hours.
After inoculating the plate for 24 hours, the cell culture medium was removed, and then 100 μL of a 4-fold gradient dilution compound starting from 10,000 nM prepared in DMEM+10% FBS, where High control and Low control contained 0.1% DMSO without compound. With 100 μL per well, the cell culture plate was cultured at 37° C. with 5% CO2 for one hour.
The compound-containing cultures were removed. 100 ng/mL of LPS was prepared with DMEM+10% FBS culture medium, and then the compound was diluted in a 4-fold gradient from 10,000 nM with LPS-containing culture medium. In low control, the compound was replaced with 0.1% DMSO. In High control, 0.1% DMSO was prepared with culture medium without LPS. 100 μL per well, and the cell culture plates were cultured at 37° C. with 5% CO2 for 4 hours.
After 4 hours of LPS stimulation, 110 μL of the culture solution was aspirated, and centrifuged at 2000 rpm for 2 minutes. A further 90 μl of supernatant was aspirated and immediately put into −20° C. for freezing.
ELISA kits were used to detect the expression of inflammatory factors such as IL-10, TNFα, etc. The OD450 signal values were measured by microplate reader. The in vitro inhibitory activity of the compounds was calculated according to the following formula: Inhibition rate: Inhibition rate (%)=(signal value of control−signal value of administration)/(high signal value of control−low signal value of control)×100%. And according to the inhibition rate of each concentration, Graphpad Prism 5.0 was used to curve fit the […] signal values at each concentration and calculate the corresponding IC50, which is shown in Table 1.
On the technique in general: In an ELISA, binding on a coated surface is turned into a signal by an enzyme label.

A short description of data set [1]: Pharmacokinetic properties in mice. Format: in vivo, ICR mice. The note with it: for absorption compared with the positive compound VX-745 at the same dose: 10 mg/kg; for Thalf (iv): iv 3 mg/kg; for Cmax / MRT / Tmax: male, ICR, mouse, plasma; for Cmax / MRT / Tmax / AUClast (po): po 10 mg/kg; for BA: po 10 mg/kg vs iv 3 mg/kg; for AUClast (po): 5-1440 minutes. As to the method:
Forty-eight male ICR mice, weighing 18-22 g (provided by Shanghai Xipuerbikai Laboratory Animal Co., Ltd, Certificate No.: 20130016008116). The mice were […] for 12-16 hours before the experiment but water was allowed.
Blood samples were collected from the fundus vein of mice before and at 2, 5, 15, 30, 60, 90, 120, 240, 480, 600, and 1440 minutes of the administration, respectively.
Blood samples were collected from the fundus vein of mice before and at 5, 15, 30, 60, 90, 120, 240, 480 and 1440 minutes of administration, respectively.
2-3 time points were taken for each mouse. The mice were sacrificed at 5, 15, 30, 60 and 1440 minutes after the administration (3 mice per time point), and the brains were taken, rinsed with saline, dried on filter paper and weighed.
(§1) Blood samples were centrifuged at 8000 rpm for 5 minutes, and supernatant plasma was taken. To 50 μL of plasma samples was added 300 μL of acetonitrile containing internal standard (propranolol, 25 ng/mL) to precipitate the protein. After vortexing for 10 minutes and centrifuging at 6000 g and 4° C. for 10 minutes, the supernatant was taken and placed in a 96-well plate for determination of drug concentration in plasma by UPLC/MS-MS.

A short description of data set [2]: Pharmacokinetic properties in rats. Format: in vivo, SD rats. On the procedure: Ten male SD rats, weighing 180-220 g (provided by Shanghai Xipuerbikai Laboratory Animal Co., Ltd, Certificate No.: 20130016008116). The rats were fasted for feed for 12-16 hours before the experiment but water was allowed.
Blood samples were collected from the fundus vein of rats before and at 2, 5, 15, 30, 60, 90, 120, 240, 360, 480, 600 and 1440 minutes after administration, respectively.
Blood samples were collected from the fundus vein of rats before and at 5, 15, 30, 60, 90, 120, 240, 360, 480, 600, 1440 minutes after administration respectively.
as §1

Setting [3] is: male, SD, plasma, rat, po 6 mg/kg.

By IC50 is commonly meant the point on the concentration scale where inhibition reaches its midpoint. As usually defined, the Cmax is the peak of the concentration-time curve. A word on the MRT: it is the average time that molecules of a dose stay in the body. For orientation: Tmax means the time at which the peak concentration occurs.

Sequence of p38β (Q15759 whole entry): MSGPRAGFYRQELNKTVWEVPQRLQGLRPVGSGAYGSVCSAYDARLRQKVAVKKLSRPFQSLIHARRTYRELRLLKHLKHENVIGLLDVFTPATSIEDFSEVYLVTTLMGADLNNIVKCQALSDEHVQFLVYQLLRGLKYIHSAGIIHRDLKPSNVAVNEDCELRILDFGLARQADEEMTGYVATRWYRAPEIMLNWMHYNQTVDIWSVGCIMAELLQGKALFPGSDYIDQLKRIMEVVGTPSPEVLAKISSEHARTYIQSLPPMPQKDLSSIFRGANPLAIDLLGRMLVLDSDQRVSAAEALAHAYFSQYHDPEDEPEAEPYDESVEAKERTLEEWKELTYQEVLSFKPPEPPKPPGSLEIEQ
Sequence of p38α (Q16539 whole entry): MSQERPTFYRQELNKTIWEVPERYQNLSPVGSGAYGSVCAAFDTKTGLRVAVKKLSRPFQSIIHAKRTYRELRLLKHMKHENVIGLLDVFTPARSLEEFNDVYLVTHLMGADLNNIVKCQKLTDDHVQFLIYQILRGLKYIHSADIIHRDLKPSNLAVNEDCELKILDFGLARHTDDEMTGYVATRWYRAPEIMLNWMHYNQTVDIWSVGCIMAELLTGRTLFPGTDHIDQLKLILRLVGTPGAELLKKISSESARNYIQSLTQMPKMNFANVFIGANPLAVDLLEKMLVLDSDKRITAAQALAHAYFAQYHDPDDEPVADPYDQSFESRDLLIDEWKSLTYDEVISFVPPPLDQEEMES

`O=c1ncn2nc(Oc3ccc(F)cc3F)ccc2c1-c1c(F)cccc1Cl` [Compound I-62, 5-(2-chloro-6-fluorophenyl)-2-(2,4-difluorophenoxy)-6H-pyrimido[1,6-b]pyridazin-6-one]: on p38α, the half-maximal inhibitory concentration (IC50) was determined as 12.1 nM. In addition, the IC50 at p38β was 101 nM. Also, at p38γ, the half-maximal inhibitory concentration (IC50) is more than 3330 nM. Also, in the data set on BV-2 cells, the Emax was found to be 48.6% and the concentration for half-maximal inhibition (IC50) was determined as 14.2 nM. In data set [1], the “absorption compared with the positive compound VX-745 at the same dose” value was “better”, the “Thalf (iv)” value was found to be 3.32 h, the highest level (Cmax) was 1600 ng/mL and the mean residence time (MRT) came out at 3.18 h. Further, in data set [1], the Tmax came to 1 h, the BA came to 103.4% and the “AUClast (po)” value is given as 4522 (h)*(ng/mL).

On to `O=c1ncn2nc(Oc3ccc(F)cc3)ccc2c1-c1c(Cl)cccc1Cl` [Compound I-19, 5-(2,6-dichlorophenyl)-2-(4-fluorophenoxy)-6H-pyrimido[1,6-b]pyridazin-6-one], for which the IC50 at p38α was 22.4 nM; at p38β, 391 nM; on p38γ, more than 3330 nM; with BV-2 cells, 53.8 nM. Besides, in the data set on BV-2 cells, the Emax stood at 61.7%. For the same molecule, the figures for the Cmax in data set [2] (setting [3]) and in data set [1] were 1090 ng/mL and 1820 ng/mL, respectively. For the same molecule, the values for the mean residence time MRT in data set [2] (setting [3]) and in data set [1] were 5.73 h and 5.55 h, respectively. Also, the Tmax was determined as 3 h in data set [2] (setting [3]) and 1.33 h in data set [1]. For the same molecule, the “Thalf (iv)” value in data set [2] (rat, iv 3 mg/kg) is 2.81 h; in data set [1], 3.73 h. Also, the BA in data set [2] (rat, po 6 mg/kg vs iv 3 mg/kg) is 87.87%; in data set [1] it was 158.7%. The “AUClast (po)” value in data set [2] (rat, po 6 mg/kg, 5-1440 minutes) is given as 7172 (h)*(ng/mL); in data set [1], 11457 (h)*(ng/mL). Further, the “absorption compared with the positive compound VX-745 at the same dose” value is on record as “significantly higher” in data set [2] (rats, 6 mg/kg) and “significantly higher” in data set [1].

As for `O=c1ncn2nc(Oc3cc(Br)ccc3Cl)ccc2c1-c1c(Cl)cccc1Cl` [Compound I-16, 2-(5-bromo-2-chlorophenoxy)-5-(2,6-dichlorophenyl)-6H-pyrimido[1,6-b]pyridazin-6-one], the 50% inhibitory concentration (IC50) at p38α is 25.9 nM; on p38β it was 109 nM; on p38γ, more than 3330 nM; in the data set on BV-2 cells, 6.19 nM. In addition, the Emax in the data set with BV-2 cells was 44.2%.

With `O=c1ncn2nc(Oc3ccc(F)c(F)c3F)ccc2c1-c1c(Cl)cccc1Cl` [Compound I-40], the half-inhibitory concentration (IC50) was 23 nM at p38α, 111 nM at p38β, more than 3330 nM at p38γ and 41.5 nM with BV-2 cells. The Emax in the data set with BV-2 cells was determined as 47.7%.

Consider `O=c1ncn2nc(Oc3ccc(Cl)cc3Cl)ccc2c1-c1c(Cl)cccc1Cl` [Compound I-20, 2-(2,4-dichlorophenoxy)-5-(2,6-dichlorophenyl)-6H-pyrimido[1,6-b]pyridazin-6-one], for which the IC50 on p38α was 17.6 nM; at p38β, 96 nM; on p38γ, more than 3330 nM; with BV-2 cells, 23.3 nM. For the same molecule, the Emax with BV-2 cells is -60%.

For the molecule `O=c1ncn2nc(Oc3cc(F)ccc3F)ccc2c1-c1c(Cl)cccc1Cl` [Compound I-21, 5-(2,6-dichlorophenyl)-2-(2,5-difluorophenoxy)-6H-pyrimido[1,6-b]pyridazin-6-one], the IC50 on p38α was 27.7 nM; at p38β, 226 nM; on p38γ, more than 3330 nM; with BV-2 cells, 19.2 nM. For the same molecule, in the data set with BV-2 cells, the Emax is 51.3%.

Turning to `O=c1ncn2nc(Oc3cccc(Br)c3)ccc2c1-c1c(Cl)cccc1Cl` [Compound I-10, 2-(3-bromophenoxy)-5-(2,6-dichlorophenyl)-6H-pyrimido[1,6-b]pyridazin-6-one], the IC50 at p38α was 60.6 nM; on p38β, 434 nM; at p38γ it was more than 3330 nM; in the data set on BV-2 cells, 75.6 nM. Also, the Emax in the data set with BV-2 cells was -60%.

As for `CC(C)N1CCN(c2cc3c(-c4c(Cl)cccc4Cl)c(=O)ncn3nc2Oc2ccc(F)cc2F)CC1` [Compound I-60, 5-(2,6-dichlorophenyl)-2-(2,4-difluorophenoxy)-3-(4-isopropylpiperazin-1-yl)-6H-pyrimido[1,6-b]pyridazin-6-one], the IC50 on p38α is 14.8 nM; on p38β, 111 nM; on p38γ it was more than 3330 nM; in the data set with BV-2 cells, 12.4 nM. Further, the Emax in the data set on BV-2 cells is 34.5%.

Turning to `O=c1ncn2nc(Oc3ccc(Cl)cc3Br)ccc2c1-c1c(Cl)cccc1Cl` [Compound I-15, 2-(2-bromo-4-chlorophenoxy)-5-(2,6-dichlorophenyl)-6H-pyrimido[1,6-b]pyridazin-6-one], the IC50 at p38α is 41.3 nM; on p38β, 263 nM; on p38γ it was more than 3330 nM; in the data set on BV-2 cells, 132 nM. The Emax with BV-2 cells came out at 46%.

Take `O=c1ncn2nc(Oc3ccc(Cl)cc3F)ccc2c1-c1c(Cl)cccc1Cl` [Compound I-6, 2-(4-chloro-2-fluorophenoxy)-5-(2,6-dichlorophenyl)-6H-pyrimido[1,6-b]pyridazin-6-one]: the IC50 was 13.6 nM at p38α, 109 nM at p38β, more than 3330 nM at p38γ and 16.1 nM with BV-2 cells. Besides, the Emax with BV-2 cells turned out to be 44.7%.

On to `O=c1ncn2nc(Oc3cc(Cl)ccc3Cl)ccc2c1-c1c(Cl)cccc1Cl` [Compound I-22, 2-(2,5-dichlorophenoxy)-5-(2,6-dichlorophenyl)-6H-pyrimido[1,6-b]pyridazin-6-one], for which the IC50 at p38α is 31.3 nM; at p38β it was 150 nM; on p38γ it was more than 3330 nM; with BV-2 cells, 18.3 nM. The Emax in the data set on BV-2 cells was determined as 53.6%.
